Inhibition data for two compounds are collected here from patent US20170190705A1, “Compositions and Methods for Inhibiting BMP” (THE BRIGHAM AND WOMAN'S HOSPITAL, INC., priority 2014, published 2017).

Common to all, as to format: biochemical
For test [1], the target named is T1, TXK (Homo sapiens, UniProt P42681).
T1 sequence (P42681 1-527): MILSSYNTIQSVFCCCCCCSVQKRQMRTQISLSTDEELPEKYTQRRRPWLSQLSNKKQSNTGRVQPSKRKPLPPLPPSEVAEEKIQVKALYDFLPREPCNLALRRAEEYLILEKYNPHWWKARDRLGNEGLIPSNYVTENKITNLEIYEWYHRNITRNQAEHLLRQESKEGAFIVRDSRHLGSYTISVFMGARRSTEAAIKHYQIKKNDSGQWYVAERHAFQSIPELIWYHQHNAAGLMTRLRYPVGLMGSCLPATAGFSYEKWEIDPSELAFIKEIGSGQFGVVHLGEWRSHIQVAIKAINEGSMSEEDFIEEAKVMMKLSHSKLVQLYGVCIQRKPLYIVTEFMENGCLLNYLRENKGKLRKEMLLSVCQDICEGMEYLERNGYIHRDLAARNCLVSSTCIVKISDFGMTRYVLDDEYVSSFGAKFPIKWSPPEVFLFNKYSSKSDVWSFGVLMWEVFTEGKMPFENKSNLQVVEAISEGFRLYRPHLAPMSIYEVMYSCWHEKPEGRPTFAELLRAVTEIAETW
Kind of test: Kinome profiling TXK. The following applies: read-out: Inhibitory activity TXK; for inhibition at 0.1 µM: 100 nM. The protocol:
(§1) . The kinome-wide selectivity was determined following the methods previously reported by Mohedas et al., ACS Chem Biol 2013, 8, 1291-1302 and Sanvitale et al., PLoS One 2013, 8, e62721.

The target of test [2] is T2, EPHB4 (Homo sapiens, UniProt P54760).
T2 sequence (P54760 16-987): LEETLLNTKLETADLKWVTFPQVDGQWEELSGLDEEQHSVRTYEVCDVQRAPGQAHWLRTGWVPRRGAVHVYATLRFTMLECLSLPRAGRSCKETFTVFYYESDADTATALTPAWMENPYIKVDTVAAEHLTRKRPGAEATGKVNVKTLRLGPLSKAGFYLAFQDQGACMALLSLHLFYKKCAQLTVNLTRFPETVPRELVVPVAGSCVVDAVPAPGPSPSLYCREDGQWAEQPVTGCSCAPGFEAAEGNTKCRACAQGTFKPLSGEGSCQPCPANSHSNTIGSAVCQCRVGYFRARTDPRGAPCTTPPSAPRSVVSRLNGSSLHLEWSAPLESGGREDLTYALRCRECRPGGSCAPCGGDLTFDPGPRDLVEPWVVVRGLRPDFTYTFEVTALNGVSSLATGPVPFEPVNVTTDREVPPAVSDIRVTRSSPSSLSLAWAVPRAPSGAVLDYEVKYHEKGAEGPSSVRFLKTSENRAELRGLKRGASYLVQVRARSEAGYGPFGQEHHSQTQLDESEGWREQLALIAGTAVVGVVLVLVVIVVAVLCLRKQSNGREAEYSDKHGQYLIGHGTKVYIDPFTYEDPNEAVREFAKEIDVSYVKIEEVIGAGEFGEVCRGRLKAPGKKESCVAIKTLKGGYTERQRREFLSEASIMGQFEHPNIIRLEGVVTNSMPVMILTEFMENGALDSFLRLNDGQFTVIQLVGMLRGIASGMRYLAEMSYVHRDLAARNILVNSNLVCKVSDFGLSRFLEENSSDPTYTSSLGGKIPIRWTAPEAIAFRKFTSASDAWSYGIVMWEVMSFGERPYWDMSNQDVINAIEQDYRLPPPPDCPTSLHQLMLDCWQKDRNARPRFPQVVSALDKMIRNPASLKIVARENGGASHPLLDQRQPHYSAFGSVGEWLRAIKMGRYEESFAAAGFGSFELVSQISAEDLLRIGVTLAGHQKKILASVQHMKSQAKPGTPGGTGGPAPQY
In words: Kinome profiling EPHB4. The following applies: read-out: Inhibitory activity EPHB4; for inhibition at 0.1 µM: 100 nM. The protocol: as §1

The target in test [3] is SRMS (Homo sapiens, UniProt Q9H3Y6). In words: Kinome profiling SRMS. The following applies: read-out: Inhibitory activity SRMS; for inhibition at 0.1 µM: 100 nM. The protocol:
as §1

In test [4] the target is P38α (Homo sapiens, UniProt Q16539). Kind of test: Kinome profiling P38α. The following applies: read-out: Inhibitory activity P38α; for inhibition at 0.1 µM: 100 nM. The protocol: as §1
Sequence of P38α (Q16539 whole entry): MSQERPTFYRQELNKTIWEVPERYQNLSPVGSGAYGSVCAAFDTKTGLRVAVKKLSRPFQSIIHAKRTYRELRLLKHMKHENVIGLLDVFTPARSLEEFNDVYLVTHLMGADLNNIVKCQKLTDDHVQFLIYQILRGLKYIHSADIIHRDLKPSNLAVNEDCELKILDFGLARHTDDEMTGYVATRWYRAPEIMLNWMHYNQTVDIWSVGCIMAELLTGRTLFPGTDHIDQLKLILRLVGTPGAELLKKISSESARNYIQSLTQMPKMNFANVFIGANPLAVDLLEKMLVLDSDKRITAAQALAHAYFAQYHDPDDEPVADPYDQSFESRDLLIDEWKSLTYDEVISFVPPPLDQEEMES
Test [5] deals with T3, SGK3 (Homo sapiens, UniProt Q96BR1).
T3 sequence (Q96BR1 1-496): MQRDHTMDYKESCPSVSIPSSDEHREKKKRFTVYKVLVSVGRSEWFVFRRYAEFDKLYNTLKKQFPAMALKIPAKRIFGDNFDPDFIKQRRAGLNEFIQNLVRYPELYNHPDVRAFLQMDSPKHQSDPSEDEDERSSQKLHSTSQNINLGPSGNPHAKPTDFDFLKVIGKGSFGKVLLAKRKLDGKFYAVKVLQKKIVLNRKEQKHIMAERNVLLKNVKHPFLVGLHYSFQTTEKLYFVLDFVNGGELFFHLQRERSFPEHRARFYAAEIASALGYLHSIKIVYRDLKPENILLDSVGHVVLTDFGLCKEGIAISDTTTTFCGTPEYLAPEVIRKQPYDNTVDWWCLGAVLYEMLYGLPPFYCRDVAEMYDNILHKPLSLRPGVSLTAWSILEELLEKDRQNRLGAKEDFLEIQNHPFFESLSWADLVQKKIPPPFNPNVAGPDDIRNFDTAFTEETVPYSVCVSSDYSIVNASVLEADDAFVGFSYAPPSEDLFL
Kind of test: Kinome profiling SGK3. The following applies: read-out: Inhibitory activity SGK3; for inhibition at 0.1 µM: 100 nM. The protocol: as §1

For test [6], the target named is IRR (Homo sapiens, UniProt P14616). In words: Kinome profiling IRR. The following applies: read-out: Inhibitory activity IRR; for inhibition at 0.1 µM: 100 nM. The protocol: as §1
Sequence of IRR (P14616 27-1297): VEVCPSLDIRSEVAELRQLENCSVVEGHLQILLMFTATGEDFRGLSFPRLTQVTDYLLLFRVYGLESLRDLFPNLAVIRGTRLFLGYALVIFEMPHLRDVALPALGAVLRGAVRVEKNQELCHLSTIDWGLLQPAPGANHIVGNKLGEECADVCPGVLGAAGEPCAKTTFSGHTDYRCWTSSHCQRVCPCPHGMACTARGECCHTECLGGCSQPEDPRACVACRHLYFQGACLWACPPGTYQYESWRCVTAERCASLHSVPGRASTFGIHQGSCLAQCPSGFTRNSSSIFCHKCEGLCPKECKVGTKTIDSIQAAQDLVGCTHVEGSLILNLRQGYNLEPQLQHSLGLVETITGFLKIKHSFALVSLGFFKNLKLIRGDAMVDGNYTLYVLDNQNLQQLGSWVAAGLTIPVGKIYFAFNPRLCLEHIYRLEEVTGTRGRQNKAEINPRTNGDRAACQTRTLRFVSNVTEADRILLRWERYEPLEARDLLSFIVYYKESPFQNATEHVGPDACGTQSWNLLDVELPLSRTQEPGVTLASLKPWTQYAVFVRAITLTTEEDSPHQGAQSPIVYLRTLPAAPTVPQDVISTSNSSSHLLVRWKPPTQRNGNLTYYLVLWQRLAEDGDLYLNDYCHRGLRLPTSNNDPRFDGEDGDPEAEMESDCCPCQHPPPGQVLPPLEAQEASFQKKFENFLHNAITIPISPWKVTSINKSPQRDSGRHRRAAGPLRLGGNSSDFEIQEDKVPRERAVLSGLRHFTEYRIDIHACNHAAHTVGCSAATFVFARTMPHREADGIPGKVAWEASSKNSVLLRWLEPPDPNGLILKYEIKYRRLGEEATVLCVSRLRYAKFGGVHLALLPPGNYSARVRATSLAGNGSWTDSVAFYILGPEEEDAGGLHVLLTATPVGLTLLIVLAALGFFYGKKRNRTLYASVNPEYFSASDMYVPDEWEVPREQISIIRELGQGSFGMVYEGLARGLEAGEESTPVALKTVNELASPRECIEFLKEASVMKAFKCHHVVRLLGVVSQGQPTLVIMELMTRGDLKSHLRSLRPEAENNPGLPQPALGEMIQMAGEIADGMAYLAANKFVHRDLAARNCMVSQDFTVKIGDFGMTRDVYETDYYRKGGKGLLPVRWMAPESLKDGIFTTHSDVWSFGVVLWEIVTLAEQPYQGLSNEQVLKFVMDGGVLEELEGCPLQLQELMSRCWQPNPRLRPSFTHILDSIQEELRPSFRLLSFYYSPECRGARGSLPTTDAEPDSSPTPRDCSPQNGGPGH
Test [7] deals with CDK2/cyclinE (Homo sapiens, UniProt P24941). In words: Kinome profiling CDK2/cyclinE. The following applies: read-out: Inhibitory activity CDK2/cyclinE; for inhibition at 0.1 µM: 100 nM. The protocol: as §1
Test [8] deals with DAPK1 (Homo sapiens, UniProt P53355). In words: Kinome profiling DAPK1. The following applies: read-out: Inhibitory activity DAPK1; for inhibition at 0.1 µM: 100 nM. The protocol:
as §1

Test [9] addresses CAMK2α (Homo sapiens, UniProt Q9UQM7). Kind of test: Kinome profiling CAMK2α. The following applies: read-out: Inhibitory activity CAMK2α; for inhibition at 0.1 µM: 100 nM. The protocol:
as §1

Test [10] has as its target CLK2 (Homo sapiens, UniProt P49760). Kind of test: Kinome profiling CLK2. The following applies: read-out: Inhibitory activity CLK2; for inhibition at 0.1 µM: 100 nM. The protocol:
as §1

Sequence of CAMK2α (Q9UQM7 whole entry): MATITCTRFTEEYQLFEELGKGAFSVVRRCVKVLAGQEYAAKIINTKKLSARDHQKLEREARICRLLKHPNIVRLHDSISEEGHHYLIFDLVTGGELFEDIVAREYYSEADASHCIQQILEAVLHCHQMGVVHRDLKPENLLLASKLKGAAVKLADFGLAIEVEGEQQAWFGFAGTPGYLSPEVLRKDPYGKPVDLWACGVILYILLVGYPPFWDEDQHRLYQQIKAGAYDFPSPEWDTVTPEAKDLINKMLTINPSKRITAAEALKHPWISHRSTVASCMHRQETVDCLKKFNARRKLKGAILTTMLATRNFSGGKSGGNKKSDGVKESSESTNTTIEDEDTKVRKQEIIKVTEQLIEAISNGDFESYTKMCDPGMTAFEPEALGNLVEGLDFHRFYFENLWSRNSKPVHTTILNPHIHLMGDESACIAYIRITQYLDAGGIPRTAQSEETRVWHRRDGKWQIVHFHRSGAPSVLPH
Sequence of CLK2 (P49760 whole entry): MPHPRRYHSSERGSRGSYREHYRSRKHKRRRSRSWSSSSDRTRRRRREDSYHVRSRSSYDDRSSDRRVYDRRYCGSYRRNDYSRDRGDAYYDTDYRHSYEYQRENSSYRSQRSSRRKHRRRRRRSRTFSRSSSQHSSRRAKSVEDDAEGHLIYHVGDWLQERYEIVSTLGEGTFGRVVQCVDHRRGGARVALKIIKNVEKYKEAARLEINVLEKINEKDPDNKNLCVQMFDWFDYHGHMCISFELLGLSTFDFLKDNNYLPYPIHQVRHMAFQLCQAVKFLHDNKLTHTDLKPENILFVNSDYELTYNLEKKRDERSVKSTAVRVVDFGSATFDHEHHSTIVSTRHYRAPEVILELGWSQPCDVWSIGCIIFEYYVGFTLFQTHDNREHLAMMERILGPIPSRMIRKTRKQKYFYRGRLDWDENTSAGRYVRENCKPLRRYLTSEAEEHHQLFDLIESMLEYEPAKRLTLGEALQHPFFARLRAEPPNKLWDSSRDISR
Sequence of DAPK1 (P53355 whole entry): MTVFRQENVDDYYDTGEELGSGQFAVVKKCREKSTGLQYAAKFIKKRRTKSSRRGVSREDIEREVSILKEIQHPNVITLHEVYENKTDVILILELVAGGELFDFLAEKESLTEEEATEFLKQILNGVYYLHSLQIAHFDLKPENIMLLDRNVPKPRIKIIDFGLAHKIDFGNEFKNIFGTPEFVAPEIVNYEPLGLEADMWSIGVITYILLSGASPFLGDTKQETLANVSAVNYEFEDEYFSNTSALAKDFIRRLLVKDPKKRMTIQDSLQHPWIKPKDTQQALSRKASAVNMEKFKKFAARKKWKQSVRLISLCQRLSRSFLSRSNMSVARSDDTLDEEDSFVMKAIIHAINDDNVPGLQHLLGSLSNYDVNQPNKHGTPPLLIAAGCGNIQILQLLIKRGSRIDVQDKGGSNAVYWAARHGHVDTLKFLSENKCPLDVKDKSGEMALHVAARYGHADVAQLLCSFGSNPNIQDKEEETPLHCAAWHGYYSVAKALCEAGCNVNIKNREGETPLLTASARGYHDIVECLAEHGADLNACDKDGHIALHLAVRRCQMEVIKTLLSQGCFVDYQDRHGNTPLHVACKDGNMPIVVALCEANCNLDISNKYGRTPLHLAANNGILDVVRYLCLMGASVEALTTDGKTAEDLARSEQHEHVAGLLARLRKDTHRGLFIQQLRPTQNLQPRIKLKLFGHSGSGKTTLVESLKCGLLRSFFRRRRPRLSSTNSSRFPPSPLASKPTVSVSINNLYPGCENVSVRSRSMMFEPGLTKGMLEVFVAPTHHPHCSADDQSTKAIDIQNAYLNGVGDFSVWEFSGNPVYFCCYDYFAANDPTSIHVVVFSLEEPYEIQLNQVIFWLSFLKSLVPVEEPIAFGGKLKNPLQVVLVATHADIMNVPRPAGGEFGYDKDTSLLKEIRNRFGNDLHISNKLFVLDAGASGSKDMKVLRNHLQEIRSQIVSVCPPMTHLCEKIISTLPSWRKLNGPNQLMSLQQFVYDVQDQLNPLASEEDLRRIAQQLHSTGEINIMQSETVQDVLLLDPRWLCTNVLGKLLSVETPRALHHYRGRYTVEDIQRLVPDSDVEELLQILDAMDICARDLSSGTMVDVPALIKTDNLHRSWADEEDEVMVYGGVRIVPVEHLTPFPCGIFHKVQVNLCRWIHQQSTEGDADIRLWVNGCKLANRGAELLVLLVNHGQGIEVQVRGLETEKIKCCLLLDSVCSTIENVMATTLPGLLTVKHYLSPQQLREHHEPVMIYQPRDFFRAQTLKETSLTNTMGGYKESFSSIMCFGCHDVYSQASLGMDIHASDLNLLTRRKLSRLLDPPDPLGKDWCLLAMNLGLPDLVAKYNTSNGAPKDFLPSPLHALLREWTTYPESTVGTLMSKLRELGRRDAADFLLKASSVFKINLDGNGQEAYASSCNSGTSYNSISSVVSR
Sequence of SRMS (Q9H3Y6 whole entry): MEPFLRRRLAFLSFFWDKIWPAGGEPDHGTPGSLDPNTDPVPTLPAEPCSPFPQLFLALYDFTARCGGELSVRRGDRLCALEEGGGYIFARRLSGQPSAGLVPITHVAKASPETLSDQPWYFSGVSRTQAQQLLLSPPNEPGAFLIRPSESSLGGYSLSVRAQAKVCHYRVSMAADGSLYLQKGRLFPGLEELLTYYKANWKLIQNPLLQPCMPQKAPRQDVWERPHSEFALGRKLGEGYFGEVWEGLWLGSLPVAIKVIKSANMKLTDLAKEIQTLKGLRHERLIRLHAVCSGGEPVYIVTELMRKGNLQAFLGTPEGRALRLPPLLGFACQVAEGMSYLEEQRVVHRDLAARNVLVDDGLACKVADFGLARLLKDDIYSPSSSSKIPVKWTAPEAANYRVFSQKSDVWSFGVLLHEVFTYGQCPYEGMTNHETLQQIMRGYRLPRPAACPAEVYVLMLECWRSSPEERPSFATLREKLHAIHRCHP

On to `COc1cc(-c2cc(-c3ccc(N4CCNCC4)cc3)cnc2N)cc(OC)c1OC` [Compound 15, 5-(4-(piperazin-1-yl)phenyl)-3-(3,4,5-trimethoxyphenyl)pyridin-2-amine], for which the inhibition at 0.1 µM in test [1] is 21%; in test [2], 7%; in test [3] it was 11%; in test [4] it was 4%; in test [5], -8%; in test [6] it was 3%. Besides, the inhibition at 0.1 µM in test [7], in test [8], in [9] and in test [10] was 1% each time. Moreover, the inhibition at 1 µM in [1] stood at 66%; in test [2], 45%; in test [3], 33%; in [4], 9%; in test [5], 3%; in test [6], 3%. Further, the inhibition at 1 µM in test [7] is 2%; in test [8] it was 0%; in test [9], -1%; in [10], -1%.

Regarding `COc1cc(-c2cc(-c3ccc(N4CCNCC4)cc3)cnc2C)cc(OC)c1OC` [Compound 10, 1-(4-(6-methyl-5-(3,4,5-trimethoxyphenyl)pyridin-3-yl)phenyl)piperazine], the inhibition at 0.1 µM was 12% in [1]; 5% in test [2]; 0% in test [3]; -2% in test [4]; 3% in [5]; 2% in test [6]. Also, the inhibition at 0.1 µM in [7] was -1%; in test [8], -1%; in [9], -1%; in [10] it was 2%. Also, the inhibition at 1 µM in test [1] is 14%; in test [2] it was 8%; in [3], 1%; in test [4], 1%; in test [5], 11%; in test [6], 1%. The inhibition at 1 µM in test [7] was 3%; in test [8] it was -1%; in test [9] it was -1%; in test [10] it was 2%.
